# According to ChEMBL document CHEMBL1201862, “PubChem BioAssay data set” (2004):
#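 Dose response: 5 concentrations. Exposure: 48 h. Format: 96-well plates. Endpoint: linear interpolation; highest concentration if not reached. GI50 = concentration required for 50% inhibition of growth.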 The source made the active and inactive calls. No stated cut-off is given here; in the data, active = GI50 up to about 1.1 µM and inactive = higher.
# Legend:
# Experiment in all cases: growth of human tumour cells (NCI), 48 h
# MDA-MB-231 = test system: MDA-MB-231
# UACC-257 = test system: UACC-257
# SW-620 = test system: SW-620
# A498 = test system: A498
# MDA-MB-435 = test system: MDA-MB-435
# TK-10 = test system: TK-10
# SF-539 = test system: SF-539
# SK-MEL-5 = test system: SK-MEL-5
# HT-29 = test system: HT-29
# SK-MEL-28 = test system: SK-MEL-28
# MDA-N = test system: MDA-N
# DU-145 = test system: DU-145
# MOLT-4 = test system: MOLT-4
# RXF 393 = test system: RXF 393
# SNB-75 = test system: SNB-75
# OVCAR-3 = test system: OVCAR-3
# SK-OV-3 = test system: SK-OV-3
# NCI-H226 = test system: NCI-H226
# NCI-H23 = test system: NCI-H23
# EKVX = test system: EKVX
# RPMI-8226 = test system: RPMI-8226
# K562 = test system: K562
# UO-31 = test system: UO-31
# CCRF-CEM = test system: CCRF-CEM
# NCI-H522 = test system: NCI-H522
# KM12 = test system: KM12
# 786-0 = test system: 786-0
# LOX IMVI = test system: LOX IMVI
# MCF7 = test system: MCF7
# M14 = test system: M14
# HCT-116 = test system: HCT-116
# A549 = test system: A549
# OVCAR-5 = test system: OVCAR-5
# OVCAR-4 = test system: OVCAR-4
# HOP-62 = test system: HOP-62
# NCI-H460 = test system: NCI-H460
# ACHN = test system: ACHN
# HCT-15 = test system: HCT-15
# SF-295 = test system: SF-295
# HCC 2998 = test system: HCC 2998
# SF-268 = test system: SF-268
# COLO 205 = test system: COLO 205
# SNB-19 = test system: SNB-19
# SK-MEL-2 = test system: SK-MEL-2
# BT-549 = test system: BT-549
# HL-60 = test system: HL-60
# UACC-62 = test system: UACC-62
# HOP-92 = test system: HOP-92
# Hs-578T = test system: Hs-578T
# PC-3 = test system: PC-3
# IGROV-1 = test system: IGROV-1
# T47D = test system: T47D
# NCI/ADR-RES = test system: NCI/ADR-RES
# CAKI-1 = test system: CAKI-1
# SN12C = test system: SN12C
# OVCAR-8 = test system: OVCAR-8
# U-251 = test system: U-251
# Malme-3M = test system: Malme-3M
# SR = test system: SR
smiles,measurement,setting,value
FC(F)(F)c1ccc2c(c1)nc(Cc1ccccc1)n2C[C@@H]1CCCN2CCCCC12 (some centres undefined),GI50,MDA-MB-231,14.2 µM (inactive)
same,GI50,UACC-257,14.7 µM (inactive)
same,GI50,SW-620,21.7 µM (inactive)
same,GI50,A498,15.5 µM (inactive)
same,GI50,MDA-MB-435,14.9 µM (inactive)
same,GI50,TK-10,17.1 µM (inactive)
same,GI50,SF-539,18.8 µM (inactive)
same,GI50,SK-MEL-5,14.4 µM (inactive)
same,GI50,HT-29,12 µM (inactive)
same,GI50,SK-MEL-28,16.2 µM (inactive)
same,GI50,MDA-N,12.7 µM (inactive)
same,GI50,DU-145,15.5 µM (inactive)
same,GI50,MOLT-4,12.9 µM (inactive)
same,GI50,RXF 393,8.55 µM (inactive)
same,GI50,SNB-75,15.1 µM (inactive)
same,GI50,OVCAR-3,14.8 µM (inactive)
same,GI50,SK-OV-3,17.5 µM (inactive)
same,GI50,NCI-H226,19.2 µM (inactive)
same,GI50,NCI-H23,14.6 µM (inactive)
same,GI50,EKVX,8.47 µM (inactive)
same,GI50,RPMI-8226,17.1 µM (inactive)
same,GI50,K562,18.9 µM (inactive)
same,GI50,UO-31,0.19 µM (active)
same,GI50,CCRF-CEM,17.1 µM (inactive)
same,GI50,NCI-H522,14 µM (inactive)
same,GI50,KM12,15.8 µM (inactive)
same,GI50,786-0,13.9 µM (inactive)
same,GI50,LOX IMVI,15.1 µM (inactive)
same,GI50,MCF7,14.1 µM (inactive)
same,GI50,M14,10.6 µM (inactive)
same,GI50,HCT-116,14.1 µM (inactive)
same,GI50,A549,15 µM (inactive)
same,GI50,OVCAR-5,16.1 µM (inactive)
same,GI50,OVCAR-4,15.2 µM (inactive)
same,GI50,HOP-62,14.6 µM (inactive)
same,GI50,NCI-H460,15.2 µM (inactive)
same,GI50,ACHN,13.5 µM (inactive)
same,GI50,HCT-15,14.6 µM
same,GI50,SF-295,15.8 µM (inactive)
same,GI50,HCC 2998,4.68 µM (inactive)
same,GI50,SF-268,14.8 µM (inactive)
same,GI50,COLO 205,14.1 µM (inactive)
same,GI50,SNB-19,14.8 µM (inactive)
same,GI50,SK-MEL-2,16.3 µM (inactive)
same,GI50,BT-549,14 µM (inactive)
same,GI50,HL-60,1.59 µM (inactive)
same,GI50,UACC-62,16.7 µM (inactive)
same,GI50,HOP-92,8.85 µM (inactive)
same,GI50,Hs-578T,18.5 µM (inactive)
same,GI50,PC-3,14.3 µM (inactive)
same,GI50,IGROV-1,12.9 µM (inactive)
same,GI50,T47D,14.4 µM (inactive)
same,GI50,NCI/ADR-RES,15.1 µM (inactive)
same,GI50,CAKI-1,15.1 µM (inactive)
same,GI50,SN12C,13.1 µM (inactive)
same,GI50,OVCAR-8,15.3 µM (inactive)
same,GI50,U-251,15.7 µM (inactive)
same,GI50,Malme-3M,15.2 µM (inactive)
same,GI50,SR,10.1 µM (inactive)
